{"source": "paper PMC3985299", "about": "“Single Ascending Dose Safety and Pharmacokinetics of CDRI-97/78: First-in-Human Study of a Novel Antimalarial Drug” (Malaria Research and Treatment, 2014)", "key": {"[1]": {"test_system": "P. cynomolgi", "parameters": "method as in printed", "details": "P. cynomolgi in rhesus monkeys; background, ref not given; cited from earlier work"}, "[2]": {"test_system": "multidrug resistant P. yoelii", "parameters": "method as in printed", "details": "multidrug resistant P. yoelii in mice; background, ref not given; cited from earlier work"}, "[3]": {"test_system": "healthy human volunteers", "assay": "Single ascending dose, placebo-controlled phase I study: adverse events, tolerability, MTD", "format": "in vivo", "details": "for Severity grade: CTCAE v4.0", "method": "This was a single ascending dose, placebo-controlled, randomized, double blind trial. Randomization was carried out by computer generated random number sequence. Randomization was carried out for the drug and the placebo in a 3 : 1 ratio for each dose level. The drugs were dispensed in sealed bottles with the randomization code written on them. Randomization codes were provided in sealed opaque envelopes with the protocol specification that the codes may be opened by the investigator only in case of a serious or severe adverse event.\nThis was used to obtain a dose of 96 mg for a 60 kg person. […] The following dose levels were evaluated: 80, 160, 320, 400, 500, 600, and 700 mg. The starting dose was calculated by allometric scaling from animals. At each dose level, six volunteers received CDRI 97/78 and two received placebo except at 700 mg where only two volunteers were given this dose. At each dose level, volunteers were assessed before proceeding to the next dose.\nThe decision to stop the dose escalation was based on the appearance of the dose limiting toxicity (DLT) which was defined as the dose at which any of the following appeared: severe nausea, vomiting, heartburn, headache, remarkable change in vital parameters such as blood pressure, heart rate, respiratory rate or oxygen saturation of blood, changes in QT interval, or any event that in the opinion of the investigators required stopping of the trial.\nIn case this was not achieved, it was planned not to dose volunteers beyond 700 mg.\nThe volunteers after giving informed consent were screened. The screening process was done latest within 1 month of admission for dosing. The volunteers who fulfilled the inclusion/exclusion criteria were admitted in the CPU the night before drug administration. Standardized dinner was served at 9 pm the night prior to dosing. On day 0, baseline blood sample for biochemical and haematological examination and stool and urine samples for routine and microscopy were taken. They received the study drug, according to the randomization sequence, under supervision. The empty packaging was returned to the container. The volunteers received drug as per randomization. Breakfast was given half an hour after drug administration. Subsequently, standardized lunch and dinner were served to the volunteers.\nThe subjects were attached to a cardiac monitor and vital HR, BP, ECG, oxygen saturation, and RR were recorded. Corrected QT interval using Fridericia's formula was calculated. […] Unscheduled monitoring was undertaken whenever it felt necessary. […] At the end of the 7th day, they were said to have completed the study. […] The study was monitored by a Data Safety Monitoring Board."}, "[4]": {"test_system": "chloroquine sensitive P. berghei", "parameters": "method as in printed", "details": "chloroquine sensitive P. berghei in mice; background, ref not given; cited from earlier work"}, "[5]": {"test_system": "rats", "parameters": "method as in printed", "details": "preclinical, used for starting dose, ref not given; cited from earlier work"}, "[6]": {"test_system": "chloroquine resistant P. falciparum", "parameters": "method as in printed", "details": "chloroquine resistant P. falciparum in vitro; background, ref not given; cited from earlier work"}, "[7]": {"details": "AE Heaviness of head, 80 mg group"}, "[8]": {"details": "AE Visual disturbances, 320 mg group"}, "[9]": {"details": "single oral dose 80-700 mg, healthy male volunteers"}, "[10]": {"details": "volunteers given 500 mg, 600 mg (and placebo)"}}, "note": "“Also recorded” adds a separate entry of the source."}
{"smiles": "C=C(c1ccc(OC(C)(C)COC(=O)CCC(=O)O)cc1)C1COC2(OO1)C1CC3CC(C1)CC2C3", "note": "(centres unmarked) [CDRI 97/78, Mono[2methyl2[3(1spiro[tricycle[3.3.1.13,7]decane2,3′-[1,2,4]trioxan] 6′-ylethenyl)phenoxy]propyl] ester]", "values": [{"measurement": "Antimalarial activity", "setting": "[1]", "value": "powerful antimalarial activity"}, {"measurement": "Antimalarial activity", "setting": "[2]", "value": "powerful antimalarial activity"}, {"measurement": "No. of events", "setting": "[3]; 80 mg, Heaviness of head", "value": 1}, {"measurement": "Type of adverse events", "setting": "[3]; 160 mg", "value": "None"}, {"measurement": "No. of events", "setting": "[3]; 320 mg, Visual disturbance", "value": 1}, {"measurement": "No. of events", "setting": "[3]; 400 mg, Bradycardia", "value": 1}, {"measurement": "No. of events", "setting": "[3]; 400 mg, Drowsiness", "value": 1}, {"measurement": "No. of events", "setting": "[3]; 400 mg, Itching", "value": 1}, {"measurement": "No. of events", "setting": "[3]; 500 mg, Nausea", "value": 1}, {"measurement": "No. of events", "setting": "[3]; 500 mg, Sedation", "value": 1}, {"measurement": "No. of events", "setting": "[3]; 600 and 700 mg, Sedation", "value": 1}, {"measurement": "Causality assessment", "setting": "[3]; AE Bradycardia, 400 mg group", "value": "Possible (possible (>5% but ≤50% chance of being drug related)"}, {"measurement": "Duration of AE", "setting": "[3]; AE Bradycardia, 400 mg group", "value": 60, "unit": "min"}, {"measurement": "Reversal complete (yes or no)", "setting": "[3]; AE Bradycardia, 400 mg group", "value": "Yes"}, {"measurement": "Spontaneous reversal (yes or no)", "setting": "[3]; AE Bradycardia, 400 mg group", "value": "Yes"}, {"measurement": "Time (hrs) of onset after drug administration", "setting": "[3]; AE Bradycardia, 400 mg group", "value": 1, "unit": "h"}, {"measurement": "Treatment given", "setting": "[3]; AE Bradycardia, 400 mg group", "value": "None"}, {"measurement": "Severity grade", "setting": "[3]; AE Bradycardia, 400 mg group", "value": 1}, {"measurement": "Causality assessment", "setting": "[3]; AE Drowsiness, 400 mg group", "value": "Possible (possible (>5% but ≤50% chance of being drug related)"}, {"measurement": "Duration of AE", "setting": "[3]; AE Drowsiness, 400 mg group", "value": 60, "unit": "min"}, {"measurement": "Reversal complete (yes or no)", "setting": "[3]; AE Drowsiness, 400 mg group", "value": "Yes"}, {"measurement": "Spontaneous reversal (yes or no)", "setting": "[3]; AE Drowsiness, 400 mg group", "value": "Yes"}, {"measurement": "Time (hrs) of onset after drug administration", "setting": "[3]; AE Drowsiness, 400 mg group", "value": 2, "unit": "h"}, {"measurement": "Treatment given", "setting": "[3]; AE Drowsiness, 400 mg group", "value": "None"}, {"measurement": "Severity grade", "setting": "[3]; AE Drowsiness, 400 mg group", "value": 1}, {"measurement": "Causality assessment", "setting": "[3]; [7]", "value": "Possible (possible (>5% but ≤50% chance of being drug related)"}, {"measurement": "Duration of AE", "setting": "[3]; [7]", "value": 15, "unit": "min"}, {"measurement": "Reversal complete (yes or no)", "setting": "[3]; [7]", "value": "Yes"}, {"measurement": "Spontaneous reversal (yes or no)", "setting": "[3]; [7]", "value": "Yes"}, {"measurement": "Time (hrs) of onset after drug administration", "setting": "[3]; [7]", "value": 0.25, "unit": "h"}, {"measurement": "Treatment given", "setting": "[3]; [7]", "value": "None"}, {"measurement": "Severity grade", "setting": "[3]; [7]", "value": 1}, {"measurement": "Causality assessment", "setting": "[3]; AE Itching, 400 mg group", "value": "Possible (possible (>5% but ≤50% chance of being drug related)"}, {"measurement": "Duration of AE", "setting": "[3]; AE Itching, 400 mg group", "value": 8, "unit": "min"}, {"measurement": "Reversal complete (yes or no)", "setting": "[3]; AE Itching, 400 mg group", "value": "Yes"}, {"measurement": "Spontaneous reversal (yes or no)", "setting": "[3]; AE Itching, 400 mg group", "value": "Yes"}, {"measurement": "Time (hrs) of onset after drug administration", "setting": "[3]; AE Itching, 400 mg group", "value": 24, "unit": "h"}, {"measurement": "Treatment given", "setting": "[3]; AE Itching, 400 mg group", "value": "None"}, {"measurement": "Severity grade", "setting": "[3]; AE Itching, 400 mg group", "value": 1}, {"measurement": "Causality assessment", "setting": "[3]; AE Nausea, 500 mg group", "value": "Possible (possible (>5% but ≤50% chance of being drug related)"}, {"measurement": "Duration of AE", "setting": "[3]; AE Nausea, 500 mg group", "value": 20, "unit": "min"}, {"measurement": "Reversal complete (yes or no)", "setting": "[3]; AE Nausea, 500 mg group", "value": "Yes"}, {"measurement": "Spontaneous reversal (yes or no)", "setting": "[3]; AE Nausea, 500 mg group", "value": "Yes"}, {"measurement": "Time (hrs) of onset after drug administration", "setting": "[3]; AE Nausea, 500 mg group", "value": 0.25, "unit": "h"}, {"measurement": "Treatment given", "setting": "[3]; AE Nausea, 500 mg group", "value": "None"}, {"measurement": "Severity grade", "setting": "[3]; AE Nausea, 500 mg group", "value": 1}, {"measurement": "Causality assessment", "setting": "[3]; AE Sedation, 500 mg group", "value": "Possible (possible (>5% but ≤50% chance of being drug related)"}, {"measurement": "Duration of AE", "setting": "[3]; AE Sedation, 500 mg group", "value": 120, "unit": "min"}, {"measurement": "Reversal complete (yes or no)", "setting": "[3]; AE Sedation, 500 mg group", "value": "Yes"}, {"measurement": "Spontaneous reversal (yes or no)", "setting": "[3]; AE Sedation, 500 mg group", "value": "Yes"}, {"measurement": "Time (hrs) of onset after drug administration", "setting": "[3]; AE Sedation, 500 mg group", "value": 2, "unit": "h"}, {"measurement": "Treatment given", "setting": "[3]; AE Sedation, 500 mg group", "value": "None"}, {"measurement": "Severity grade", "setting": "[3]; AE Sedation, 500 mg group", "value": "1-2"}, {"measurement": "Causality assessment", "setting": "[3]; AE Sedation, 600 mg group", "value": "Possible (possible (>5% but ≤50% chance of being drug related)"}, {"measurement": "Duration of AE", "setting": "[3]; AE Sedation, 600 mg group", "value": 60, "unit": "min"}, {"measurement": "Reversal complete (yes or no)", "setting": "[3]; AE Sedation, 600 mg group", "value": "Yes"}, {"measurement": "Spontaneous reversal (yes or no)", "setting": "[3]; AE Sedation, 600 mg group", "value": "Yes"}, {"measurement": "Time (hrs) of onset after drug administration", "setting": "[3]; AE Sedation, 600 mg group", "value": 2, "unit": "h"}, {"measurement": "Treatment given", "setting": "[3]; AE Sedation, 600 mg group", "value": "None"}, {"measurement": "Severity grade", "setting": "[3]; AE Sedation, 600 mg group", "value": "1-2"}, {"measurement": "Causality assessment", "setting": "[3]; [8]", "value": "Remote (remote (<5% chance of being drug related))"}, {"measurement": "Duration of AE", "setting": "[3]; [8]", "value": "2 to 3", "unit": "min"}, {"measurement": "Reversal complete (yes or no)", "setting": "[3]; [8]", "value": "Yes"}, {"measurement": "Spontaneous reversal (yes or no)", "setting": "[3]; [8]", "value": "Yes"}, {"measurement": "Time (hrs) of onset after drug administration", "setting": "[3]; [8]", "value": 36, "unit": "h"}, {"measurement": "Treatment given", "setting": "[3]; [8]", "value": "None"}, {"measurement": "Severity grade", "setting": "[3]; [8]", "value": 1}, {"measurement": "Heart rate during adverse event bradycardia", "setting": "[3]; adverse event bradycardia", "value": "56-57 bpm"}, {"measurement": "Incidence of adverse events, drug vs placebo groups", "setting": "[3]; all dose levels, P = 0.43", "value": "no significant difference"}, {"measurement": "Serious adverse events", "setting": "[3]; single oral dose 80-700 mg", "value": "No serious adverse events were reported"}, {"measurement": "MTD (maximum tolerated dose)", "setting": "[3]; [9]", "value": "not reached; also recorded: could not be determined"}, {"measurement": "Tolerability / safety", "setting": "[3]; [9]", "value": "well tolerated; also recorded: safe and tolerable"}, {"measurement": "Sedation: duration", "setting": "[3]; [10]", "value": "1 to 2", "unit": "h"}, {"measurement": "Sedation: time of onset after drug administration", "setting": "[3]; [10]", "value": "about 2 hours"}, {"measurement": "Antimalarial activity", "setting": "[4]", "value": "powerful antimalarial activity"}, {"measurement": "Maximum tolerated dose", "setting": "[5]", "value": 100, "unit": "mg/kg"}, {"measurement": "Antimalarial activity", "setting": "[6]", "value": "powerful antimalarial activity"}]}
